Experimental data taken from patent US11278561B2, “Combination treatment for hematological cancers” (Geron Corporation, priority 2016, dated 2022).
{PalmAG} = palmitoyl amide conjugated through an aminoglycerol linker to the 5'-thiophosphate; {PalmN} = palmitoyl amide conjugated through the terminal 3'-amino group; [NPS] = N3'→P5' thiophosphoramidate internucleoside linkage; {NH2} = amino group

Columns and labels:
Format in all cases: cell-based
MOLM-13 cells [1] = experiment: Annexin V / Propidium Iodide flow cytometry apoptosis assay in MOLM-13; set-up: key to Excess over HSA / Excess over BLISS: excess = combination minus HSA/Bliss expected, in % apoptotic cells; settings: for Loewe Excess: ABT-199 nM: r7 1000, r8 500, r9 100, r10 20, r11 5, r12 1, r13 0.2, r14 0.04, r15 0; for Excess over HSA: MOLM-13, 96 hours, ABT-199 0 nM, r7 Mismatch 50 μM, r8 Mismatch 25 μM, r9 Non-complimentary 50 μM, r10 Non-complimentary 25 μM
Procedure: (§1) AML tumor cells KG-1 (ATCC #CCL-246) and MOLM-13 (DSMZ #ACC554) were plated at a density of ˜20,000 cells per well on 96-well polystyrene U-bottom tissue culture plates (Corning catalog #353777) in RPMI-1640 (ThermoFisher catalog #11875-085) supplemented with 10% fetal bovine serum (ThermoFisher catalog #16140-089) and 1% penicillin/streptomycin antibiotic cocktail (ThermoFisher catalog 15140-122) and grown in a 37° C. incubator under humidified 5% CO2 atmosphere.
(§2) At 48 and 96 hours, cells were measured for healthy, early apoptotic and apoptotic populations with an Annexin V (interior cell membrane stain) plus Propidium Iodide (PI, DNA binding dye) flow cytometry assay kit (BioLegend catalog 640914). Annexin V detects the externalization of phosphatidylserine in apoptotic cells using recombinant annexin V conjugated to green-fluorescent FITC dye and dead cells using Propidium iodide (PI). Propidium iodide stains necrotic cells with red fluorescence. After treatment with both probes, early apoptotic cells show green fluorescence, apoptotic (dead) cells show red and green fluorescence, and live cells show little or no fluorescence. […] Cells were stained for 30 minutes at 4° C. in the dark, followed by 3× washes with PBS and suspension in FACs Stain Buffer (BD catalog 554657) prior to interrogation on a BD FACs Canto flow cytometer for forward scatter, side scatter, FITC, and PE channels. […] The percentage of apoptotic cells (double labeled) was used to calculate combination effects using both the Highest Single Agent (HSA) and Bliss additivity models (J Tang et al. Frontiers in Pharmacology. 2015; 6 (181)).
(§3) Using the HSA model, the cytotoxic effect of the combined condition (“C”) was compared to the effect generated by each of the single agent controls (“A” or “B”) for the respective dose in the combination: Excess over HSA=C−A (if A>B) or C−B (if A<B)
(§4) The Bliss model performs a similar comparison, but instead of the highest effect of single agent, the Bliss model subtracts from the combination a value equal to the sum of each single agent minus their product: Excess over Bliss=C−[(A+B)−(A*B)]
Treated cells were analyzed by Flow cytometry for Annexin V and Propidium Iodide staining as described previously. Events gated in the apoptotic population (Annexin V+/Propidium Iodide+) were used to determine synergy scores for the combination matrix. Combination data analysis was generated by the Horizon Chalice™ Analyzer Software (Horizon Discovery Group, Cambridge, UK). […] Mismatch and non-complimentary controls were not utilized in this experiment.
Combination conditions undergo isobolar analysis to generate a combination index and graphically represent the behavior of a combination with synergistic pairs falling below the isobologram and antagonistic falling above it (additive combinations would be expected to fall on the line). The Horizon Chalice™ Analyzer Software additionally provides a synergy score, with values greater than 1 indicating synergy.

KG-1 cells = experiment: Annexin V / Propidium Iodide flow cytometry apoptosis assay in KG-1; set-up: key to Excess over HSA / Excess over BLISS: excess in % apoptotic (Annexin V/PI double-labeled) cells over HSA/Bliss; settings: ABT-199 0 nM, r7 Mismatch 50 μM, r8 Mismatch 25 μM, r9 Non-complimentary 50 μM, r10 Non-complimentary 25 μM
Procedure: as §1, §2, §3, §4

MOLM-13 cells [2] = experiment: Annexin V / Propidium Iodide flow cytometry apoptosis assay in MOLM-13; set-up: key to Excess over BLISS: Excess over Bliss = C−[(A+B)−(A*B)], % apoptotic cells; key to Excess over HSA: excess = combination minus HSA/Bliss expected, in % apoptotic cells; settings: for Loewe Excess: MOLM-13, 48 hour treatment, ABT-199 nM: r7 1000, r8 500, r9 100, r10 20, r11 5, r12 1, r13 0.2, r14 0.04, r15 0; for Excess over BLISS / Excess over HSA: ABT-199 0 nM, r7 Mismatch 50 μM, r8 Mismatch 25 μM, r9 Non-complimentary 50 μM, r10 Non-complimentary 25 μM

Q: With “Non-complimentary: control oligonucleotide 5′-AACAGATTGGGAT-R-3′ (SEQ ID NO: 3), palmitoyl amide on the terminal 3′ amino group of an NPS oligonucleotide (all [NPS], 3' {PalmN}, sugars by position and methylation of C not given here)” as the substance, how does the “Loewe Excess” value (MOLM-13 cells [1]; MOLM-13, 48 hour treatment, Non-Complimentary 1 μM) read?
A: Its value is 6.

Q: What about the “Loewe Excess” value (MOLM-13 cells [1]; MOLM-13, 48 hour treatment, Non-Complimentary 10 μM) of the same substance?
A: The value was −2.

Q: What about the “Loewe Excess” value (MOLM-13 cells [1]; MOLM-13, 48 hour treatment, Non-Complimentary 50 μM) of the same substance?
A: Its value is −2.

Q: And the “Loewe Excess” value (MOLM-13 cells [1]; MOLM-13, 48 hour treatment, Non-Complimentary 75 μM)?
A: Its value is 1.

Q: And the “Loewe Excess” value (MOLM-13 cells [1]; MOLM-13, 96 hour treatment, Non-Complimentary 1 μM)?
A: The value was 1.

Q: And the “Loewe Excess” value (MOLM-13 cells [1]; MOLM-13, 96 hour treatment, Non-Complimentary 5 μM)?
A: The value was 0.

Q: What about the “Loewe Excess” value (MOLM-13 cells [1]; MOLM-13, 96 hour treatment, Non-Complimentary 10 μM) of the same substance?
A: Its value is −1.

Q: And the “Loewe Excess” value (MOLM-13 cells [1]; MOLM-13, 96 hour treatment, Non-Complimentary 25 μM)?
A: Its value is −1.

Q: And the “Loewe Excess” value (MOLM-13 cells [1]; MOLM-13, 96 hour treatment, Non-Complimentary 50 μM)?
A: Its value is −1.

Q: What about the “Loewe Excess” value (MOLM-13 cells [1]; MOLM-13, 96 hour treatment, Non-Complimentary 75 μM) of the same substance?
A: The value was 1.

Q: What about the “Excess over HSA” value (MOLM-13 cells [1]) of the same substance?
A: The value was 0.

Q: And the “Excess over BLISS” value (KG-1 cells; KG-1, 48 hours)?
A: Its value is 0.

Q: And the “Excess over HSA” value (KG-1 cells; KG-1, 48 hours)?
A: The value was 0.

Q: And the “Excess over BLISS” value (KG-1 cells; KG-1, 96 hours)?
A: Its value is 0.

Q: What about the “Excess over HSA” value (KG-1 cells; KG-1, 96 hours) of the same substance?
A: Its value is 0.

Q: And the “Loewe Excess” value (MOLM-13 cells [2]; Non-Complimentary 5 μM)?
A: The value was −1.

Q: What about the “Loewe Excess” value (MOLM-13 cells [2]; Non-Complimentary 25 μM) of the same substance?
A: Its value is −1.

Q: And the “Excess over BLISS” value (MOLM-13 cells [2]; MOLM-13, 48 hours)?
A: The value was 0.

Q: And the “Excess over HSA” value (MOLM-13 cells [2]; MOLM-13, 48 hours)?
A: The value was 0.

Q: What about the “Excess over BLISS” value (MOLM-13 cells [2]; MOLM-13, 96 hours) of the same substance?
A: The value was 0.

Q: What does the source list for “Mismatch: control oligonucleotide 5′-R-TAGGTGTAAGCAA-NH2-3′ (SEQ ID NO: 2), palmitoyl amide conjugated NPS-linked oligonucleotide (all [NPS], 5' {PalmAG}, 3' {NH2}, sugars by position and methylation of C not given here)”?
A: Loewe Excess (MOLM-13 cells [1]; MOLM-13, 48 hour treatment, Mismatch 1 μM): 4; Loewe Excess (MOLM-13 cells [1]; MOLM-13, 48 hour treatment, Mismatch 5 μM): 2; Loewe Excess (MOLM-13 cells [1]; MOLM-13, 48 hour treatment, Mismatch 25 μM): 1; Loewe Excess (MOLM-13 cells [1]; MOLM-13, 48 hour treatment, Mismatch 50 μM): 0; Loewe Excess (MOLM-13 cells [1]; MOLM-13, 48 hour treatment, Mismatch 75 μM): 0; Loewe Excess (MOLM-13 cells [1]; MOLM-13, 96 hour treatment, Mismatch 1 μM): 1; Loewe Excess (MOLM-13 cells [1]; MOLM-13, 96 hour treatment, Mismatch 5 μM): 0; Loewe Excess (MOLM-13 cells [1]; MOLM-13, 96 hour treatment, Mismatch 10 μM): −1; Loewe Excess (MOLM-13 cells [1]; MOLM-13, 96 hour treatment, Mismatch 25 μM): −2; Loewe Excess (MOLM-13 cells [1]; MOLM-13, 96 hour treatment, Mismatch 50 μM): −1; Loewe Excess (MOLM-13 cells [1]; MOLM-13, 96 hour treatment, Mismatch 75 μM): 1; Excess over HSA (MOLM-13 cells [1]): 0; Excess over BLISS (KG-1 cells; KG-1, 48 hours): 0; Excess over HSA (KG-1 cells; KG-1, 48 hours): 0; Excess over BLISS (KG-1 cells; KG-1, 96 hours): 0; Excess over HSA (KG-1 cells; KG-1, 96 hours): 0; Loewe Excess (MOLM-13 cells [2]; Mismatch 10 μM): −1; Excess over BLISS (MOLM-13 cells [2]; MOLM-13, 48 hours): 0; Excess over HSA (MOLM-13 cells [2]; MOLM-13, 48 hours): 0; Excess over BLISS (MOLM-13 cells [2]; MOLM-13, 96 hours): 0
